Publication PMC4369170 (ACS chemical biology, 2015)
Where two headings read alike, the source gives them in different places.

What was measured:
PfENT1 [1] = target: T1, PfENT1 (Plasmodium falciparum, UniProt Q8IDM6); test: cell-based; settings: 125 µM 5-FUrd
PfENT1 [2] = target: T1, PfENT1; format: cell-based
[3] = test system: chloroquine-resistant Dd2 parasites; test: Dd2 parasite viability / proliferation; format: cell-based, Plasmodium falciparum; settings: for IC50: Plasmodium falciparum, DD2, read-out: IC50 Dd2 parasite viability – high purine media; for IC50 with xanthine as purine source versus hypoxanthine: WT Dd2, 90 µM xanthine vs 10 µM hypoxanthine as sole purine source
PfENT1 [4] = target: T1, PfENT1; test: [3H]adenosine uptake into ade2Δ + PfENT1-CO yeast; format: cell-based
PfENT4 = test: [14C]2-deoxyadenosine uptake into PfENT4-expressing Xenopus oocytes; format: cell-based, Plasmodium falciparum; settings: concentrations up to 50 µM
P. falciparum 3D7 strain = test: 3D7 parasite viability / proliferation, 72-h growth assay; settings: ~10× the IC50 concentration; first 24 h of culture
PfENT1 [5] = target: T1, PfENT1; format: cell-based; settings: each compound at 10 µM; 125 µM 5-FUrd
PfENT1 [6] = target: T1, PfENT1; settings: cited from earlier work
[7] = test system: fui1Δ::PfENT1-HA-CO strain; test: 5-FUrd growth inhibition of PfENT1-HA-CO expressing fui1Δ yeast; format: cell-based; settings: Saccharomyces cerevisiae, read-out: 5-FUrd IC50, yeast cell growth, growth assessed by OD600
[8] = EC50 5-FUrd growth rescue of fui1Δ::PfENT1-HA-CO, mean ± SD, N ≥ 3

T1 sequence (Q8IDM6 whole entry): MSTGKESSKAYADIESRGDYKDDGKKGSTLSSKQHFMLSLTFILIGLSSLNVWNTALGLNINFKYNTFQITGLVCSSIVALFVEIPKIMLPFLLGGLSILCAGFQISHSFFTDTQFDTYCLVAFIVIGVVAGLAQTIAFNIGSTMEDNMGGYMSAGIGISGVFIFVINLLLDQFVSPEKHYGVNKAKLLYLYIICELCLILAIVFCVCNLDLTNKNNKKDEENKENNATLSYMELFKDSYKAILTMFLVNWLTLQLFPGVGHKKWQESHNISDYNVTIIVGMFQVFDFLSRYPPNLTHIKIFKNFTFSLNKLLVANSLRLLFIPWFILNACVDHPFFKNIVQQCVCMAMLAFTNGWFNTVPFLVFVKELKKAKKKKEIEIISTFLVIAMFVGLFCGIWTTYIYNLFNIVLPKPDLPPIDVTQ

## O=C(Nc1ccc(-c2nc3ncccc3o2)cc1)c1ccccc1Br [Compound 2, 2-bromo-N-(4-[1,3]oxazolo[4,5-b]pyridin-2-ylphenyl)benzamide]
PfENT1 [1]; [8]
  EC50: 6 ± 1.7 µM
PfENT1 [2]
  IC50: 2.1 ± 0.9 µM
[3]
  IC50: 52.4 ± 5.7 µM
  IC50 with xanthine as purine source versus hypoxanthine: significantly lower

## Cc1ccccc1/C=C/c1nc2ccccc2c(=O)[nH]1 [Compound 13, 2-[2-(2-methylphenyl)vinyl]-4(3H)-quinazolinone]
PfENT1 [1]; [8]
  EC50: 4.7 ± 2.9 µM
PfENT1 [2]
  IC50: 0.6 ± 0.1 µM
PfENT1 [4]
  IC50: 0.0039 ± 0.0016 µM
[3]
  IC50: 2.6 ± 0.2 µM

## COc1cc(COc2ccc3c(C)cc(=O)oc3c2)cc(OC)c1OC [Compound 3, 4-methyl-7-[(3,4,5-trimethoxybenzyl)oxy] -2H-chromen-2-one]
PfENT1 [1]; [8]
  EC50: 2.3 ± 0.9 µM
PfENT1 [2]
  IC50: 0.6 ± 0.1 µM
[3]
  IC50: 36.2 ± 6 µM
  IC50 with xanthine as purine source versus hypoxanthine: significantly lower
PfENT4
  inhibition of [14C]2-deoxyadenosine uptake: did not inhibit
P. falciparum 3D7 strain
  parasite stage progression (microscopy): failed to progress beyond the ring stage

## OCCN(CCO)c1nc(N2CCCCC2)c2nc(N(CCO)CCO)nc(N3CCCCC3)c2n1 [dipyridamole]
PfENT1 [5]
  HTS outcome (positive = growth > four SD above no-growth control): not positive
PfENT1 [6]
  block of PfENT1: do not block

## O=C(Nc1ccc(Cl)c(-c2nc3ncccc3o2)c1)c1cccs1 [Compound 19, N-(4-chloro-3-[1,3]oxazolo[4,5-b]pyridin-2-ylphenyl)-2-thiophenecarboxamide]
PfENT1 [1]; [8]
  EC50: 5.4 ± 0.8 µM
PfENT1 [2]
  IC50: 1.7 ± 0.2 µM
[3]
  IC50: 37.4 ± 1.6 µM

## O=[N+]([O-])c1ccc(CSc2ncnc3c2ncn3C2OC(CO)C(O)C2O)cc1 (stereo not shown) [nitrobenzylthioinosine]
PfENT1 [6]
  block of PfENT1: do not block

## O=C(Nc1ccc2nc(NC(=O)c3ccco3)sc2c1)c1ccco1 [Compound 1, N,N'-1,3-benzothiazole-2,6-diyldi(2-furamide)]
PfENT1 [1]; [8]
  EC50: 0.8 µM
PfENT1 [2]
  IC50: 0.2 ± 0.1 µM
[3]
  IC50: 25.8 ± 1.3 µM
  IC50 with xanthine as purine source versus hypoxanthine: significantly lower

## OC[C@H]1O[C@@H](n2cnc3c(O)ncnc32)[C@H](O)[C@@H]1O [Inosine, inosine, reference compound]
PfENT1 [1]; EC50 rescue of fui1Δ::PfENT1-HA-CO strain growth, OD600
  EC50: 3300 ± 200 µM
PfENT1 [1]; EC50 rescue of fui1Δ::PfENT1-HA-CO strain growth, fluorescence
  EC50: 5600 ± 2100 µM

## O=c1[nH]c(=O)n([C@@H]2O[C@H](CO)[C@@H](O)[C@H]2O)cc1F [5-FUrd, 5-fluorouridine]
[7]
  IC50: 7 ± 2 µM

## O=C(Nc1ccc(-c2nnc(-c3ccco3)o2)cc1)c1ccco1 [Compound 4, N-{4-[5-(2-furyl)-1,3,4-oxadiazol-2-yl]phenyl}-2-furamide]
PfENT1 [1]; [8]
  EC50: 5.7 ± 0.8 µM
PfENT1 [2]
  IC50: 1.7 ± 0.4 µM
[3]
  IC50: 15.3 ± 2.7 µM

## Cn1cc(C(=O)C(=O)Nc2ccc(C(=O)N3CCCC3)cc2)c2ccccc21 [Compound 5, 2-(1-methyl-1H-indol-3-yl)-2-oxo-N-[4-(pyrrolidin-1-ylcarbonyl)phenyl]acet amide]
PfENT1 [1]; [8]
  EC50: 6.5 ± 1.5 µM
PfENT1 [2]
  IC50: 2 ± 0.01 µM
[3]
  IC50: 28.9 ± 2.6 µM
  IC50 with xanthine as purine source versus hypoxanthine: significantly lower

## O=C(Nc1cccc(-c2nc3ncccc3o2)c1)c1cccc(F)c1 [Compound 6, 3-fluoro-N-(3-[1,3]oxazolo[4,5-b]pyridin-2-ylphenyl)benzamide]
PfENT1 [1]; [8]
  EC50: 5.7 ± 1.3 µM
PfENT1 [2]
  IC50: 1.1 ± 0.1 µM
[3]
  IC50: 38.8 ± 4.9 µM

## COc1ccccc1C(=O)Nc1cccc(-c2nc3ncccc3o2)c1 [Compound 7, 2-methoxy-N-(3-[1,3]oxazolo[4,5-b]pyridin-2-ylphenyl)benzamide]
PfENT1 [1]; [8]
  EC50: 6.4 ± 0.9 µM
PfENT1 [2]
  IC50: 1.6 ± 0.01 µM
[3]
  IC50: 31 ± 0.6 µM
